Test results: patent US7323447B2, “Hepatitis C virus inhibitors” (Bristol-Myers Squibb Company, priority 2005, dated 2008)
Read-outs that look alike come from different tables or passages of the source.

Tests used:
[1] = target: T1, HCV NS3/4A protease complex (BMS strain) (UniProt P27958); assay: FRET peptide assay to monitor HCV NS3/4A proteolytic activity, BMS strain; format: biochemical, Hepatitis C virus (genotype 1a); conditions: read-out: IC50 Range; HCV NS3/4A enzyme assay; Table 1
T1 construct: other: HCV NS3/4A enzyme assay; said of H77 and J4L6S; fused on or other part: Three-lysine solubilising tail at the NS4A C-terminus and a His tag from pET21b (Ni-NTA purification), for the H77 and J4L6S constructs
Source text: HCV NS3 protease complexes, derived from the BMS strain, H77 strain or J4L6S strain, were generated, as described below. These purified recombinant proteins were generated for use in a homogeneous assay (see below) to provide an indication of how effective compounds of the present disclosure would be in inhibiting HCV NS3 proteolytic activity.
Serum from an HCV-infected patient was obtained from Dr. T. Wright, San Francisco Hospital. An engineered full-length cDNA (compliment deoxyribonucleic acid) template of the HCV genome (BMS strain) was constructed from DNA fragments obtained by reverse transcription-PCR (RT-PCR) of serum RNA (ribonucleic acid) and using primers selected on the basis of homology between other genotype 1a strains. From the determination of the entire genome sequence, a genotype 1a was assigned to the HCV isolate according to the classification of Simmonds et al. (See P Simmonds, K A Rose, S Graham, S W Chan, F McOmish, B C Dow, E A Follett, P L Yap and […] Marsden, J. Clin. Microbiol., 31(6), 1493-1503 (1993)). […] The infectious clones, H77 (1a genotype) and J4L6S (1b genotype) were obtained from R. Purcell (NIH) and the sequences are published in Genbank (AAB67036, see Yanagi, M., Purcell, R. H., Emerson, S. U. and Bukh, J. Proc. Natl. Acad. Sci. U.S.A. 94(16), 8738-8743 (1997); AF054247, see Yanagi, M., St Claire, M., Shapiro, M., Emerson, S. U., Purcell, R. H. and Bukh, J, Virology 244 (1), 161-172. (1998)).
NS3/4A protease complex-containing fractions were pooled and loaded on a desalting column Superdex-S200 pre-equilibrated with buffer D (25 mM HEPES, pH 7.5, 20% glycerol, 300 mM NaCl, 0.2% Triton X-100, 10 mM βME). Sample was loaded at a flow rate of 1 mL/min. NS3/4A protease complex-containing fractions were pooled and concentrated to approximately 0.5 mg/ml. The purity of the NS3/4A protease complexes, derived from the BMS, H77 and J4L6S strains, were judged to be greater than 90% by SDS-PAGE and mass spectrometry analyses. The enzyme was stored at −80° C., thawed on ice and diluted prior to use in assay buffer.
The purpose of this in vitro assay was to measure the inhibition of HCV NS3 protease complexes, derived from the BMS strain, H77 strain or J4L6S strain, as described above, by compounds of the present disclosure. This assay provides an indication of how effective compounds of the present disclosure would be in inhibiting HCV NS3 proteolytic activity.
In order to monitor HCV NS3/4A protease activity, an NS3/4A peptide substrate was used. The substrate was RET S1 (Resonance Energy Transfer Depsipeptide Substrate; AnaSpec, Inc. cat # 22991) (FRET peptide), described by Taliani et al. in Anal. Biochem. 240(2):60-67 (1996). The sequence of this peptide is loosely based on the NS4A/NS4B natural cleavage site for the HCV NS3 protease except there is an ester linkage rather than an amide bond at the cleavage site. The peptide also contains a fluorescence donor, EDANS, near one end of the peptide and an acceptor, DABCYL, near the other end. The fluorescence of the peptide is quenched by […] resonance energy transfer (RET) between the donor and the acceptor, but as the NS3 protease cleaves the peptide the products are released from RET quenching and the fluorescence of the donor becomes apparent.
The peptide substrate was incubated with one of the three recombinant NS3/4A protease complexes, in the absence or presence of a compound of the present disclosure. The inhibitory effects of a compound were determined by monitoring the formation of fluorescent reaction product in real time using a Cytofluor Series 4000.
Assay buffer: 50 mM HEPES, pH 7.5; 0.15 M NaCl; 0.1% Triton; 15% Glycerol; 10 mM βME. Substrate: 2 μM final concentration (from a 2 mM stock solution in DMSO stored at −20° C.). HCV NS3/4A protease type 1a (1b), 2-3 nM final concentration (from a 5 μM stock solution in 25 mM HEPES, pH 7.5, 20% glycerol, 300 mM NaCl, 0.2% Triton-X100, 10 mM βME). […]

[2] = tested on: HCV replicon in HUH-7 cells; assay: HCV replicon FRET assay; format: cell-based, Hepatitis C virus (strain 1b); conditions: Table 1
Source text: An HCV replicon whole cell system was established as described by Lohmann V, Korner F, Koch J, Herian U, Theilmann L, Bartenschlager R., Science 285(5424): 110-3 (1999). This system enabled us to evaluate the effects of our HCV Protease compounds on HCV RNA replication. Briefly, using the HCV strain 1b sequence described in the Lohmann paper (Assession number: AJ238799), an HCV cDNA was synthesized by Operon Technologies, Inc. (Alameda, Calif.), and the full-length replicon was then assembled in plasmid pGem9zf(+) (Promega, Madison, Wis.) using standard molecular biology techniques. The replicon consists of (i) the HCV 5′ UTR fused to the first 12 amino acids of the capsid protein, (ii) the neomycin phosphotransferase gene (neo), (iii) the IRES from encephalomyocarditis virus (EMCV), and (iv) HCV NS3 to NS5B genes and the HCV 3′ UTR. Plasmid DNAs were linearized with ScaI and RNA transcripts were synthesized in vitro using the T7 MegaScript transcription kit (Ambion, Austin, Tex.) according to manufacturer's directions. In vitro transcripts of the cDNA were transfected into the human hepatoma cell line, HUH-7. […] Resulting cell lines were characterized for positive and negative strand RNA production and protein production over time.
The HCV replicon FRET assay was developed to monitor the inhibitory effects of compounds described in the disclosure on HCV viral replication. HUH-7 cells, constitutively expressing the HCV replicon, were grown in Dulbecco's Modified Eagle Media (DMEM) (Gibco-BRL) containing 10% Fetal calf serum (FCS) (Sigma) and 1 mg/ml G418 (Gibco-BRL). Cells were seeded the night before (1.5×10^4 cells/well) in 96-well tissue-culture sterile plates. Compound and no compound controls were prepared in DMEM containing 4% FCS, 1:100 Penicillin/Streptomysin (Gibco-BRL), 1:100 L-glutamine and 5% DMSO in the dilution plate (0.5% DMSO final concentration in the assay). Compound/DMSO mixes were added to the cells and incubated for 4 days at 37° C. After 4 days, cells were first assessed for cytotoxicity using alamar Blue (Trek Diagnotstic Systems) for a CC50 reading. The toxicity of compound (CC50) was determined by adding 1/10th volume of alamarBlue to the media incubating the cells. After 4 h, the fluorescence signal from each well was read, with an excitation wavelength at 530 nm and an emission wavelength of 580 nm, using the Cytofluor Series 4000 (Perspective Biosystems). Plates were then rinsed thoroughly with Phosphate-Buffered Saline (PBS) (3 times 150 μl). The cells were lysed with 25 μl of a lysis assay reagent containing an HCV protease substrate (5× cell Luciferase cell culture lysis reagent (Promega #E153A) diluted to 1× with distilled water, NaCl added to 150 mM final, the FRET peptide substrate (as described for the enzyme assay above) diluted to 10 μM final from a 2 mM stock in 100% DMSO. The plate was then placed into the Cytofluor 4000 instrument which had been set to 340 nm excitation/490 nm emissions, automatic mode for 21 cycles and the plate read in a kinetic mode. EC50 determinations were carried out as described for the IC50 determinations.

[3] = Hepatitis C virus, Huh-7, read-out: EC50 Range, HCV replicon cell assay
[4] = read-out: EC50 Range, HCV replicon cell assay

T1 sequence (P27958 1027-1657, one chain of several): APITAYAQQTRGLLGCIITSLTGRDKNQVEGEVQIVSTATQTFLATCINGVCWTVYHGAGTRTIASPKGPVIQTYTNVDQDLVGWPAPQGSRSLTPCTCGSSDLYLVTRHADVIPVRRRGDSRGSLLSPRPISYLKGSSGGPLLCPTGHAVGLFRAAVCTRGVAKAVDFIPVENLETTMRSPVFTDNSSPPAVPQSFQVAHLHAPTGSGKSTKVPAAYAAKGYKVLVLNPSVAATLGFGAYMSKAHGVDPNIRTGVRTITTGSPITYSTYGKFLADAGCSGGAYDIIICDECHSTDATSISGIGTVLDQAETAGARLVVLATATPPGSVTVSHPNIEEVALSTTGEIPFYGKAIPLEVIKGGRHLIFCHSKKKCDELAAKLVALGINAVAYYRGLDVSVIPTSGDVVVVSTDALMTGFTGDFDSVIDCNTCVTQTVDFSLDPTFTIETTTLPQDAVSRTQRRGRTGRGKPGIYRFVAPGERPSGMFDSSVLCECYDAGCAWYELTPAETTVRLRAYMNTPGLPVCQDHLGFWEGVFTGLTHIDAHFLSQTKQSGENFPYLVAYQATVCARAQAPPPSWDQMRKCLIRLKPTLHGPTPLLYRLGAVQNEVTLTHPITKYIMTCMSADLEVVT

| Structure (SMILES) | IC50 [1] [nM] | EC50 [2, 3] [nM] | EC50 [2, 4] [nM] |
| --- | --- | --- | --- |
| CCC1C[C@]1(NC(=O)[C@@H]1C[C@@H](Oc2cc(-c3ccccc3)nc3cc(OC)ccc23)CN1C(=O)C1(O)CC1)C(=O)NS(=O)(=O)C1CC1 (stereo partly drawn) [Example 15] | 100 to 1000 | 500 to 5000 |  |
| C=C[C@@H]1C[C@]1(NC(=O)[C@@H]1C[C@@H](Oc2cc(-c3ccccc3)nc3cc(OC)ccc23)CN1C(=O)[C@@H](OC(=O)NC(C)C)C(C)(C)C)C(=O)NS(=O)(=O)C1CC1 [Example 5,Compound 2] | < 100 | < 500 |  |
| C=C[C@@H]1C[C@]1(NC(=O)[C@@H]1C[C@@H](Oc2nccc3cc(OC)ccc23)CN1C(=O)[C@@H](OC(=O)NC1CCCC1)C(C)C)C(=O)NS(=O)(=O)C1CC1 (stereo in doubt) [Example 53Compound 53] | > 1000 |  | > 5000 |
| C=C[C@@H]1C[C@]1(NC(=O)[C@@H]1C[C@@H](Oc2nccc3cc(OC)ccc23)CN1C(=O)[C@@H](OC(=O)NC(C)(C)C)C(C)(C)C)C(=O)NS(=O)(=O)c1ccccc1 [Example 59Compound 59] | 100 to 1000 | 500 to 5000 |  |
| C=C[C@@H]1C[C@]1(NC(=O)[C@@H]1C[C@@H](Oc2cc(-c3cccs3)cc(-c3ccccc3)n2)CN1C(=O)[C@@H](OC(=O)NC(C)(C)C)C(C)(C)C)C(=O)NS(=O)(=O)C1CC1 [Example 55Compound 55] | < 100 | 500 to 5000 |  |
| C=C[C@@H]1C[C@]1(NC(=O)[C@@H]1C[C@@H](Oc2nccc3ccccc23)CN1C(=O)[C@@H](OC(=O)NC1CCCC1)C(C)(C)C)C(=O)NS(=O)(=O)C1CC1 [Example 9] | 100 to 1000 | 500 to 5000 |  |
| C=C[C@@H]1C[C@]1(NC(=O)[C@@H]1C[C@@H](Oc2nc(-c3ccc(OC(F)(F)F)cc3)cc3cc(OC)ccc23)CN1C(=O)[C@@H](O)C1CCCCC1)C(=O)NS(=O)(=O)C1CC1 [Example 62Compound 62] | 100 to 1000 | 500 to 5000 |  |
| C=C[C@@H]1C[C@]1(NC(=O)[C@@H]1C[C@@H](Oc2cc(-c3ccccc3)nc3cc(OC)ccc23)CN1C(=O)[C@@H](OC(=O)Nc1ccc(N(C)C)cc1)C(C)(C)C)C(=O)NS(=O)(=O)C1CC1 [Example 5,Compound 7] | 100 to 1000 | 500 to 5000 |  |
| C=C[C@@H]1C[C@]1(NC(=O)[C@@H]1CC(Oc2cc(-c3ccccc3)nc3cc(OC)ccc23)CN1C(=O)[C@@H](O)C(C)(C)C)C(=O)NS(=O)(=O)C1(CC2CC2)CC1 (stereo partly drawn) [Example 12] | < 100 | 500 to 5000 |  |
| C=C[C@@H]1CC1(NC(=O)[C@@H]1C[C@@H](Oc2cc(-c3ccccc3)nc3cc(OC)ccc23)CN1C(=O)[C@@H](OC(=O)NC(C)(C)C)C(C)(C)C)C(=O)NS(=O)(=O)C1(CC2CC2)CC1 (stereo partly drawn) [Example 22] | < 100 | 500 to 5000 |  |
| C=C[C@@H]1C[C@]1(NC(=O)[C@@H]1C[C@@H](Oc2cc(-c3ccccc3)nc3cc(OC)ccc23)CN1C(=O)[C@@H](O)C1CCCCC1)C(=O)NS(=O)(=O)C1CC1 [Example 4,Compound 4] | < 100 | 500 to 5000 |  |
| C=C[C@@H]1C[C@]1(NC(=O)[C@@H]1C[C@@H](Oc2nccc3ccccc23)CN1C(=O)[C@@H](OC(=O)Nc1ccc(OC)cc1)C(C)(C)C)C(=O)NS(=O)(=O)C1CC1 [Example 31] | 100 to 1000 | 500 to 5000 |  |
| C=C[C@@H]1C[C@]1(NC(=O)[C@@H]1C[C@@H](Oc2cc(-c3ccccc3)nc3cc(OC)ccc23)CN1C(=O)[C@@H](O)Cc1c[nH]cn1)C(=O)NS(=O)(=O)C1CC1 [Example 4,Compound 3] | 100 to 1000 | > 5000 |  |
| CCC1C[C@]1(NC(=O)[C@@H]1C[C@@H](Oc2cc(-c3ccccc3)nc3cc(OC)ccc23)CN1C(=O)C(O)C(C)C)C(=O)NS(=O)(=O)C1CC1 (stereo partly drawn) [Example 11] | < 100 | 500 to 5000 |  |
| C=C[C@@H]1C[C@]1(NC(=O)[C@@H]1C[C@@H](Oc2nccc3ccccc23)CN1C(=O)[C@@H](OC(=O)Nc1ccc(C(C)(C)C)cc1)C(C)(C)C)C(=O)NS(=O)(=O)C1CC1 [Example 33] | 100 to 1000 | 500 to 5000 |  |
| C=C[C@@H]1C[C@]1(NC(=O)[C@@H]1C[C@@H](Oc2nccc3ccccc23)CN1C(=O)[C@@H](OC(=O)Nc1ccccc1C(C)C)C(C)(C)C)C(=O)NS(=O)(=O)C1CC1 [Example 32] | 100 to 1000 | 500 to 5000 |  |
| C=C[C@@H]1C[C@]1(NC(=O)[C@@H]1C[C@@H](Oc2nccc3cc(OC)ccc23)CN1C(=O)[C@@H](O)C(C)C)C(=O)NS(=O)(=O)C1CC1 [Example 50Compound 50] | 100 to 1000 |  | 500 to 5000 |
| C=C[C@@H]1C[C@]1(NC(=O)C1CC(Oc2cc(-c3ccccc3)nc3cc(OC)ccc23)CN1C(=O)[C@@H](O)C(C)(C)C)C(=O)NS(=O)(=O)C1CC1 (stereo partly drawn) [Example 4,Compound 8] | < 100 | 500 to 5000 |  |
